Laboratory results published in paper PMC6143625, “A high throughput screen for next-generation leads targeting malaria parasite transmission” (Nature Communications, 2018).

Columns and labels:
[1] = test system: P. falciparum stage V male gametocytes (male gamete formation); experiment: P. falciparum dual gamete formation assay (Pf DGFA), male readout (exflagellation), 48 h carry-over format; type: cell-based, Plasmodium falciparum NF54; settings: primary screen, 2 uM, 48 h incubation, single replicate
Protocol: (§1) P. falciparum NF54 strain (originally isolated from an imported malaria case in the Netherlands in the 1980s; BEI Resources, cat. no. MRA-1000) asexual and sexual stages culture was performed as previously described. Gametocyte cultures were initiated at 1% asexual ring stage parasitaemia and 4% haematocrit in 40 ml final volume. To induce gametocyte production, complete culture medium (CM) (RPMI 1640 supplemented with 25 mM HEPES, 50 µg ml^−1 hypoxanthine, 2 g l^−1 NaHCO3 and 10% pooled human male type A+ serum) was replaced daily for 14 days without fresh erythrocyte addition. Human serum was obtained from Interstate Blood Bank, A^+ serotype; no aspirin 2 h before drawing and no antimalarials 2 weeks before drawing. On day 14 after culture induction, gametocyte production was assessed by thin smear and Giemsa staining, and exflagellation accurately counted in a haemocytometer. Gametocyte cultures with >0.2% exflagellation (compared to total erythrocyte cell number) were deemed acceptable for use in the Pf DGFA. Note, all human biological samples were sourced ethically and their research use was in accord with the terms of the informed consents under an IRB/EC approved protocol.
(§2) In screening mode, the assay was performed as described in Delves et al.[35] with a mean Z′ factor of 0.56 ± 0.14 (SD) (male) and 0.71 ± 0.17 (SD) (female). Pooled mature gametocyte cultures with the capacity to yield >0.2% exflagellation (of total cells) were diluted in CM to 14 million cells per ml and so that 700,000 cells were dispensed in 50 µl into each well of the warmed 384-well screening plates. Parasites were incubated in the plates with compounds for 48 h in a humidified chamber under 92%N2/5% CO2/3% O2 gas mix before gamete formation was triggered by addition of 10 µl per well ookinete medium (RPMI 1640 supplemented with 25 mM HEPES, 50 µg ml^−1 hypoxanthine, 2 g l^−1 NaHCO3, 100 µM xanthurenic acid) containing 0.5 µg ml^−1 anti-Pfs25 clone 4B7 (BEI Resources, cat. no. MRA-315) conjugated to the fluorophore Cy3 (GE Healthcare), and also by cooling the plate at 4 °C for 4 min and then a further 5 min at 28 °C. Exflagellation was recorded immediately by brightfield microscopy using a Nikon Ti-E widefield microscope at ×4 objective, ×1.5 zoom, recording a 10-frame video time-lapse over 2 s for each well. Afterwards, plates were incubated in the dark at 28 °C for a further 24 h to allow female gametes to maximally express Pfs25 on their surface. Female gamete formation was recorded by single-image fluorescence microscopy using the same microscope and magnification as above. Exflagellation and female gamete formation were quantified by specific algorithms designed with the open-source ICY Image Analysis software.
(§3) Assay performance statistics, such as signal to background ratio, Z′ and robust 3×SD activity cut-off were calculated using templates in ActivityBase XE (IDBS, Guilford, Surrey, UK). Hit population analysis and visualisation were conducted using Spotfire DecisionSite (Spotfire, Inc., Somerville, Massachusetts). The pIC50 (−log IC50) values were obtained using the ActivityBase XE nonlinear regression function in the full curve analysis bundle. In screening mode, the Pf DGFA achieved a mean Z′ factor of 0.56 ± 0.14 (SD) (male) and 0.71 ± 0.17 (SD) (female).

[2] = test system: P. falciparum stage V female gametocytes (female gamete formation); experiment: P. falciparum dual gamete formation assay (Pf DGFA), female readout (Pfs25 expression), 48 h carry-over format; type: cell-based, Plasmodium falciparum NF54; settings: primary screen, 2 uM, 48 h incubation, single replicate
Protocol: as §1
as §2, with “Parasites were incubated in the plates with compounds for 48 h in a humidified chamber under” left out
as §3

SMILES | %Inhibition Male @2uM [1] [%] | %Inhibition Female @2uM [2] [%]
Cc1ccc(N2CCCC(N(C)Cc3cc(C)on3)C2)nn1 (stereo not drawn) [DDD01069945] | <30 | 39.02
COc1cc(CNC(C)c2cccc(Cl)c2)cc(OC)c1OC (stereo not drawn) [DDD01069994] | 35.70 | <30
COCc1noc(C2(c3cccc(Cl)c3)CCOCC2)n1 [DDD01070409] | 71.92 | <30
O=C(CNc1cc2c(cc1Cl)OCCO2)NCC(F)(F)F [DDD01070591] | <30 | 39.90
CCS(=O)(=O)NC1CCCN(c2ccc(F)cc2C)C1=O (stereo not drawn) [DDD01074148] | <30 | 33.10
COC(=O)C1CCCN1C(=O)c1ccc(-n2nc(C)cc2C)cc1 (stereo not drawn) [DDD01075977] | <30 | 33.22
Fc1ccc(-c2nnc(CNC3CCc4ncnn4C3)o2)cc1 (stereo not drawn) [DDD01076055] | <30 | 36.38
Cc1noc(CS(=O)(=O)C(C)C(=O)N(C)c2ccccc2)n1 (stereo not drawn) [DDD01076606] | 31.49 | <30
CN(C)C(=O)c1ccc(NCCNc2ccc3ccccc3n2)nc1 [DDD01076923] | 31.80 | <30
CN(CC(N)=O)C(=O)C1Cc2cc(Cl)ccc2O1 (stereo not drawn) [DDD01077287] | <30 | 46.87
O=S(=O)(NC1CCCCC12OCCO2)c1cc(F)cc(F)c1 (stereo not drawn) [DDD01077321] | <30 | 41.54
CC(CCc1ccccc1)N1CCC(C(=O)Nc2cnccn2)CC1 (stereo not drawn) [DDD01077885] | 52.25 | <30
CC(C)c1nsc(N2CCc3sccc3C2)n1 [DDD01078291] | 38.07 | <30
CSc1ccc(OCCN2CCNC(=O)CC2)cc1 [DDD01078342] | <30 | 31.10
CC(CNC(=O)c1cnc[nH]1)Oc1ccc(Cl)cc1 (stereo not drawn) [DDD01078520] | <30 | 32.98
Cc1cc(C)c(C(=O)N2CCc3c(ncn3CCc3ccccc3)C2)[nH]1 [DDD01078816] | <30 | 31.51
CCS(=O)(=O)c1ccc(N2CCC(NC(C)=O)CC2)cc1 [DDD01080141] | <30 | 30.47
CCN(CC)CC(=O)NCCc1csc(N2CCCC2)n1 [DDD01080188] | <30 | 40.13
Cc1ccc(C2COCCN2C(=O)c2ccc(CN(C)C)cc2)o1 (stereo not drawn) [DDD01080189] | <30 | 41.68
NC(=O)c1ccc(N2CCCCC2)c(NC(=O)c2cc(Br)ccc2F)c1 [DDD01080647] | <30 | 45.72
CCc1cnc(CN(C(C)=O)C2CCN(CCS(C)(=O)=O)C2)o1 (stereo not drawn) [DDD01081064] | 46.67 | <30
CCOC1CCC2(CCN(C(=O)c3csnn3)CC2)c2ccccc21 (stereo not drawn) [DDD01081288] | 95.81 | <30
CS(=O)(=O)N1Cc2ccnn2CC(C(=O)NCc2cccnc2)C1 (stereo not drawn) [DDD01081357] | 43.36 | <30

SMILES | %Inhibition Male @2uM [1] [%] | %Inhibition Female @2uM [2] [%]
COc1ccc2c(c1)C1(CCNCC1)CC2NC1CC1 (stereo not drawn) [DDD01081368] | 45.77 | <30
O=C1CC[C@@H]2[C@@H](CCN2S(=O)(=O)C2CC2)N1CC1CC1 [DDD01081437] | 31.40 | <30
c1c(CN2CCOCC2)nc2n1CCN(CC1CC1)C2 [DDD01081604] | 36.99 | <30
CN(C)[C@@H]1CCN(S(C)(=O)=O)[C@H]1Cc1ccccc1 [DDD01081694] | 32.12 | <30
CCc1cnc(N2CC[C@H]3[C@@H]2CCC(=O)N3c2ccccc2)nc1 [DDD01081766] | 33.06 | <30
CC(C)n1nc(CN2CCCC2=O)c2c1CN(C(=O)c1ccc[nH]1)C2 [DDD01081769] | <30 | 30.49
O=C(c1ccoc1)N1CCOC2(COCCN(CC3CC3)C2)C1 (stereo not drawn) [DDD01082156] | <30 | 30.05
CC(C)N(C)Cc1cncc2c1CCN(CC(=O)N(C)C)C2 [DDD01082190] | <30 | 42.20
CC1c2ncc(Cn3cccn3)n2CCN1c1ncccn1 (stereo not drawn) [DDD01082239] | <30 | 34.70
CCCN1CCC(c2nc3ccc(-c4cccc(OC)c4)cn3n2)CC1 [DDD01082327] | <30 | 35.67
CCOCC(=O)N1CCc2nc(C)nc(NC(C)C)c2CC1 [DDD01082409] | 45.90 | <30
O=C(NC1CC1)[C@H]1CC[C@@H]2[C@@H](CCN2CCOCc2ccccc2)O1 [DDD01082763] | 87.75 | <30
Cn1cncc1C(=O)N1C[C@@H]2CCN(c3cnccn3)C[C@@H]2C1 [DDD01082777] | <30 | 40.85
O=S(=O)(c1ccccc1)N1CCC2(CCCN2Cc2ccccc2Cl)C1 (stereo not drawn) [DDD01083172] | 37.32 | <30
CS(=O)(=O)NCc1nnc2n1CCN(Cc1cccnc1)C2 [DDD01083181] | 31.87 | <30
COc1ccc(CN2CC[C@@H](O)[C@@H]2Cc2cnn(C)c2)cc1 [DDD01083182] | 38.13 | <30
CC1=N[C@@]2(CC[C@@H]3CN(S(=O)(=O)CC(C)C)C[C@@H]32)C(=O)N1CC1CC1 [DDD01083262] | <30 | 94.03
CN(C)C(=O)N1CCCC2(CCN(c3ccsc3)C2=O)C1 (stereo not drawn) [DDD01083808] | <30 | 43.49
CN(C)[C@@H]1CCN(C(=O)Cc2cccs2)[C@H]1Cc1ccncc1 [DDD01083822] | 35.35 | <30
O=C(c1ccnnc1)N1C[C@H](OCc2ccccn2)[C@H]2COC[C@H]21 [DDD01084503] | <30 | 32.17
CN(C)CCN1CCN(C)c2nc(-c3ccccc3)ncc2C1=O [DDD01235874] | 34.25 | <30
CC(C)[C@H](NS(C)(=O)=O)C(=O)NCc1cc(-c2ccco2)n[nH]1 [DDD01235905] | 31.18 | <30
